# Laboratory results from patent publication US8691864B2, “Agents useful for reducing amyloid precursor protein and treating dementia and methods of use thereof” (priority 2000, dated 2014).
# Legend:
# secreted APP = assay: ELISA for secreted APP in SHSY5Y cells; type: cell-based, human; conditions: 16 hours
# Experimental: (§1) An enzyme-linked immunosorbent assay was developed to detect secreted APP in SHSY5Y cells, a human neuroblastoma cell line. The purpose of the screen was to discover small molecules that inhibit APP protein synthesis in SHSY5Y cells. SHSY5Y cells were plated at 1×10^5 cells/well in […] of DMEM containing 0.5% heat inactivated FBS in 96 well tissue culture treated plates (Falcon no. 35 3072). 144 MES compounds were tested at final concentrations of […] in 0.1% DMSO. Compounds were added and the plates incubated for 16 hours at 37° C./5% CO2. Maxisorp plates (Nunc no. 437958) were coated overnight with […] capture antibody (Biosource 44-100) diluted in Ca^++ and Mg^++ free PBS. Biosource 44-100 is a mouse mAb that recognizes aa 1-100 of human APP. Plates were blocked for 30 minutes with 1 mg/mL BSA in Ca^++ and Mg^++ free PBS. Plates were washed 3× with wash buffer (Ca^++ and Mg^++ free PBS+0.01% Tween20). […] of supernatants and non-cultured medium controls were transferred from culture plates to ELISA plates. Culture plates were reserved for toxicity analysis. Supernatants were incubated for 4 hours at RT on a plate shaker. After supernatant incubation, plates were washed 3×. Primary antibody (Signet Clone 6E-10 biotin) was added at 0.3125 mg/mL and incubated overnight at 4° C. The recognition site of 6E-10 is aa 1-17 of Ab. For detection, a 1:3000 dilution of horseradish peroxidase conjugated streptavidin (Endogen no. N-100) was incubated for 30 minutes. Plates were washed 3×. Enzyme activity was assessed by incubation with […] TMB substrate solution (Moss no. TMB-US) for 20 minutes. The reaction was stopped by the addition of […] 0.18M sulfuric acid. Optical density was read at 450 nm on Wallac Victor2 plate reader. During the first incubation, toxicity was determined using MTS assay, Cell Titer96 AQ reagent (Promega no. G5430). The background values from the non-cultured medium control were subtracted from the sample values and secreted APP levels and toxicity were expressed as % vehicle control. Of the 144 MES compounds screened, 12 inhibited secreted APP as determined by ELISA. The results are depicted in FIGS. 13A-M.
# (§2) Using the experimental procedure outlined above, APP secretion and toxicity studies were performed on several other non-carbamate compounds, and the results are shown in Tables 3 and 4. The compound structures are provided in Table 2 in the application, which are identified by their MES number.
# SH-SY-5Y Cells = assay: MTS toxicity assay in SHSY5Y cells; type: cell-based, human
# Experimental: as §1, §2
SMILES,APP Secretion by SH-SY-5Y Cells (secreted APP; Dose 2 uM),APP Secretion by SH-SY-5Y Cells (secreted APP; Dose 6 uM),APP Secretion by SH-SY-5Y Cells (secreted APP; Dose 20 uM),APP Toxicity SH-SY-5Y Cells (MTS assay) (SH-SY-5Y Cells; Dose 2 uM),APP Toxicity SH-SY-5Y Cells (MTS assay) (SH-SY-5Y Cells; Dose 6 uM),APP Toxicity SH-SY-5Y Cells (MTS assay) (SH-SY-5Y Cells; Dose 20 uM),APP Secretion by SH-SY-5Y Cells (secreted APP; Dose 0.08 uM),APP Secretion by SH-SY-5Y Cells (secreted APP; Dose 0.25 uM),APP Secretion by SH-SY-5Y Cells (secreted APP; Dose 0.74 uM),APP Toxicity SH-SY-5Y Cells (MTS assay) (SH-SY-5Y Cells; Dose 0.08 uM),APP Toxicity SH-SY-5Y Cells (MTS assay) (SH-SY-5Y Cells; Dose 0.25 uM),APP Toxicity SH-SY-5Y Cells (MTS assay) (SH-SY-5Y Cells; Dose 0.74 uM),"APP Secretion by SH-SY-5Y Cells (secreted APP; Dose 2 uM, listed as 9294)","APP Secretion by SH-SY-5Y Cells (secreted APP; Dose 6 uM, listed as 9294)","APP Secretion by SH-SY-5Y Cells (secreted APP; Dose 20 uM, listed as 9294)","APP Toxicity SH-SY-5Y Cells (MTS assay) (SH-SY-5Y Cells; Dose 2 uM, listed as 9294)","APP Toxicity SH-SY-5Y Cells (MTS assay) (SH-SY-5Y Cells; Dose 6 uM, listed as 9294)","APP Toxicity SH-SY-5Y Cells (MTS assay) (SH-SY-5Y Cells; Dose 20 uM, listed as 9294)"
COc1ccc2c(c1)[C@]1(C)CCN(Cc3ccccc3)C1N2 (stereo partly drawn) [MES 9278],118.4 % vehicle control,116.8 % vehicle control,120.6 % vehicle control,97.63 % vehicle control,98.4 % vehicle control,96.33 % vehicle control,,,,,,,,,,,,
C[C@@]12CCN(Cc3ccccc3)C1Nc1ccc(O)cc12 (stereo partly drawn) [MES 9279],43.27 % vehicle control,42.37 % vehicle control,18.4 % vehicle control,68.63 % vehicle control,46.67 % vehicle control,38.63 % vehicle control,97.8 % vehicle control,98.4 % vehicle control,97 % vehicle control,102.9 % vehicle control,101.1 % vehicle control,100.1 % vehicle control,,,,,,
"CC(Br)C(=O)N(C)c1ccc(O)cc1 (stereo not drawn) [MES 9291, Propionanilde]",100.1 % vehicle control,96.9 % vehicle control,67.8 % vehicle control,102.4 % vehicle control,99.87 % vehicle control,99 % vehicle control,98.2 % vehicle control,99.5 % vehicle control,99.7 % vehicle control,99.1 % vehicle control,100.5 % vehicle control,97.1 % vehicle control,,,,,,
"CC1C(=O)N(C)c2ccc(O)cc21 (stereo not drawn) [MES 9292, 1,3-Dimethyl-5-hydroxyoxindole]",106.15 % vehicle control,99.55 % vehicle control,100.15 % vehicle control,102.85 % vehicle control,103.75 % vehicle control,104.9 % vehicle control,,,,,,,,,,,,
COc1ccc2c(c1)C(C)C(=O)N2C (stereo not drawn) [MES 9293],97.8 % vehicle control,102.75 % vehicle control,94.45 % vehicle control,100.8 % vehicle control,99.85 % vehicle control,101.95 % vehicle control,,,,,,,,,,,,
COc1ccc2c(c1)[C@@]1(C)CCNC1N2C (stereo partly drawn) [MES 9294],,,,,,,,,,,,,105.25 % vehicle control,90 % vehicle control,111 % vehicle control,99.9 % vehicle control,98.3 % vehicle control,100.2 % vehicle control
COc1ccc2c(c1)C1(C)CCSC1N2C (stereo not drawn) [MES 9301],108.45 % vehicle control,106.1 % vehicle control,111.15 % vehicle control,99.15 % vehicle control,97.35 % vehicle control,95.9 % vehicle control,,,,,,,,,,,,
COc1ccc2c(c1)[C@]1(C)CCSC1N2C (stereo partly drawn) [MES 9302],100.35 % vehicle control,105.4 % vehicle control,105.8 % vehicle control,100.7 % vehicle control,101.2 % vehicle control,99.05 % vehicle control,,,,,,,,,,,,
COc1ccc2c(c1)C1(c3ccccc3)CCNC1N2C (stereo not drawn) [MES 9305],106.2 % vehicle control,102.4 % vehicle control,102.2 % vehicle control,95.8 % vehicle control,96.73 % vehicle control,94.83 % vehicle control,,,,,,,,,,,,
